# Test results as given in patent US20130183696A1, “METHODS OF USE AND KIT FOR MEASUREMENT OF LIPOPOLYSACCHARIDE WITH A TIME RESOLVED FLUORESCENCE BASED ASSAY” (priority 2010, published 2013).
# Key:
# [1] = cited from earlier work
# [2] = biological target: T1, recombinant rat A1 adenosine receptor (Rattus norvegicus, UniProt P25099); assay: A1 adenosine receptor TRF Eu-GTP binding assay, standard curve for LPS; assay type: biochemical; conditions: CHO cell membranes, Eu-GTP 10 nM, % basal activity; mean of 8-10 independent assays, LPS 10 pg/mL-100 ng/mL
# T1 construct: purchased PerkinElmer, Waltham, Mass; host or cells: CHO cells (membranes)
# T1 sequence (P25099 1-326): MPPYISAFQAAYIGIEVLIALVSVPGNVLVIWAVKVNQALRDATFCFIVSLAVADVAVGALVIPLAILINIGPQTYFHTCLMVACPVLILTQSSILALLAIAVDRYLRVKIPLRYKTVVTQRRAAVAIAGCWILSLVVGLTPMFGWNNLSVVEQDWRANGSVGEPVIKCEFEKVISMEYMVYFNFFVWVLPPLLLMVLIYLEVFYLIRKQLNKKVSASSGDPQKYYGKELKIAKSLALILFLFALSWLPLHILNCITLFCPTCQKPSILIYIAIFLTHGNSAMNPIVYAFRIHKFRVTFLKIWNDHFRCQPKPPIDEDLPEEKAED
# Experimental: To generate a standard LPS/endotoxin standard curve membranes prepared from CHO cells (1 unit/well corresponding to approximately 20 μg of protein per well; PerkinElmer, Waltham, Mass.) expressing the recombinant rat A1 adenosine receptor are preincubated in an Acrowell filter plate (Pall Life Sciences, Ann Arbor, Mich.) in the presence of LPS/endotoxin (USP, Rockville, Md.) (0.01-750 ng/mL). The endotoxin stock solution is prepared by dissolving 10,000 endotoxin units (corresponding to 1000 ng) in 333 μL of endotoxin free water. […] Each assay point is evaluated in triplicate. […] Fluorescence in each well is determined with an Infinite F-200 PRO (Tecan, Grodig, Austria) using fluorescent top read with an excitation wavelength of 320 nm, emission wavelength of 620 nm, and gain setting of 109. Eu-GTP basal activity is calculated as the difference between total Eu-GTP bound and nonspecific Eu-GTP bound. Percent (%) basal is calculated as follows: [(test condition−nonspecific)/(basal activity)]*100. […] The standard curve is analyzed by nonlinear regression (GraphPad Prism, version 5, GraphPad Software, La Jolla, Calif.) using a sigmoidal dose-response curve with variable slope to determine EC50. Each standard curve represents a minimum of three independent experiments and final data are expressed as the mean±SEM. […]
Substance,adverse side effect ([1]; in vivo),"reduction of absolute mortality compared to placebo ([1]; sepsis patients, definitive large clinical trials (Bernard et al., 2001))",sensitivity of the assay for LPS [2]
"drotrecogin alfa [Xigris, drotrecogin alfa [activated]]",serious adverse side effect of bleeding,6%,–
lipopolysaccharide [LPS],–,–,10 pg/mL
